Assay results as given in the supplement of paper PMC10307832.

Assays:
Test in all cases: relative viability (nuclei count vs DMSO), 5 days (fraction); higher = more cells survive
VE-821 + Olaparib = compound: CS(=O)(=O)c1ccc(-c2cnc(N)c(C(=O)Nc3ccccc3)n2)cc1 [VE-821] + O=C(c1cc(Cc2n[nH]c(=O)c3ccccc23)ccc1F)N1CCN(C(=O)C2CC2)CC1 [Olaparib] (partner 8 µM)
In short: (§1)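 For relative viability, nuclei counts in treated wells were divided by those in vehicle wells. Lung cancer cell lines had been pin-tool dosed in 1536-well plates the day after seeding and cultured for 5 days, then fixed and stained in one step (final 0.05% Triton X-100, 1% formaldehyde, 1 ug/ml Hoechst) and imaged at 4×. Doses were one drug alone or a fixed anchor-drug dose plus five library-drug doses (not always all listed) in √10 steps, and values are duplicate-plate medians.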

Ruxolitinib + Lapatinib = compound: N#CC[C@H](C1CCCC1)n1cc(-c2ncnc3[nH]ccc23)cn1 [Ruxolitinib] + CS(=O)(=O)CCNCc1ccc(-c2ccc3ncnc(Nc4ccc(OCc5cccc(F)c5)c(Cl)c4)c3c2)o1 [Lapatinib] (partner 2 µM)
In short: as §1

Vismodegib + Trametinib = compound: CS(=O)(=O)c1ccc(C(=O)Nc2ccc(Cl)c(-c3ccccn3)c2)c(Cl)c1 [Vismodegib] + CC(=O)Nc1cccc(-n2c(=O)n(C3CC3)c(=O)c3c(Nc4ccc(I)cc4F)n(C)c(=O)c(C)c32)c1 [Trametinib] (partner 0.02 µM)
In short: as §1

Ruxolitinib + Dasatinib = compound: N#CC[C@H](C1CCCC1)n1cc(-c2ncnc3[nH]ccc23)cn1 [Ruxolitinib] + Cc1nc(Nc2ncc(C(=O)Nc3c(C)cccc3Cl)s2)cc(N2CCN(CCO)CC2)n1 [Dasatinib] (partner 0.075 µM)
In short: as §1

UMC-11 gave a relative viability (VE-821 + Olaparib; first compound 0.08 µM) of 0.82, a relative viability (VE-821 + Olaparib; first compound 0.253 µM) of 0.429 and a relative viability (VE-821 + Olaparib; first compound 0.8 µM) of 0.374. For the same cell line, the relative viability (VE-821 + Olaparib; first compound 2.53 µM) was 0.274, the relative viability (VE-821 + Olaparib; first compound 8 µM) was 0.208 and the relative viability (Ruxolitinib + Lapatinib; first compound 0.08 µM) was 1.01. For the same cell line, the relative viability (Ruxolitinib + Lapatinib; first compound 0.253 µM) was 0.934, the relative viability (Ruxolitinib + Lapatinib; first compound 0.8 µM) was 1.23 and the relative viability (Ruxolitinib + Lapatinib; first compound 2.53 µM) was 0.998. The relative viability (Ruxolitinib + Lapatinib; first compound 8 µM) was 1.02, the relative viability (Vismodegib + Trametinib; first compound 0.08 µM) was 0.422 and the relative viability (Vismodegib + Trametinib; first compound 0.253 µM) was 0.669. It also gave a relative viability (Vismodegib + Trametinib; first compound 0.8 µM) of 0.609, a relative viability (Vismodegib + Trametinib; first compound 2.53 µM) of 0.618 and a relative viability (Vismodegib + Trametinib; first compound 8 µM) of 0.375. For the same cell line, the relative viability (Ruxolitinib + Dasatinib; first compound 0.08 µM) was 0.437, the relative viability (Ruxolitinib + Dasatinib; first compound 0.253 µM) was 0.492 and the relative viability (Ruxolitinib + Dasatinib; first compound 0.8 µM) was 0.524. The relative viability (Ruxolitinib + Dasatinib; first compound 2.53 µM) was 0.508 and the relative viability (Ruxolitinib + Dasatinib; first compound 8 µM) was 0.512.
